From US11452731B2, “Method of treating and preventing loss of cognition” (ENDORECHERCHE, INC., priority 2009, dated 2022)
Entries after “also recorded” stand apart in the source; their conditions may differ.

What was measured:
human Ishikawa cells = experiment: Alkaline phosphatase activity in human endometrial adenocarcinoma Ishikawa cells (Example 6)
[1] = tested on: ZR-75-1 human breast cancer xenografts; experiment: Growth and response of human ZR-75-1 breast tumors in OVX nude mice, 7 antiestrogens for 161 days with or without estrone (Example 8); type: in vivo
Procedure, shortened: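 ZR-75-1 xenografts were grown in ovariectomized nude mice, with estrone implants removed in the OVX control and antiestrogen-alone groups. Antiestrogens were given as suspensions for 161 days. Tumor area came from two perpendicular diameters, and response was assessed at study end using mice surviving at least 84 days.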

[2] = tested on: ZR-75-1 human breast cancer xenografts; experiment: Tamoxifen and EM-652.HCl alone or combined on growth of ZR-75-1 xenografts in nude mice (FIG. 7); type: in vivo; details: hydrochloride
[3] = 10% DHEA cream once daily for 12 months in 60 to 70 year old women; type: in vivo
Source text: The use of estrogen replacement therapy requires the addition of progestins to counteract the endometrial proliferation induced by estrogens while both estrogens and progestins could increase the risk of breast cancer (Bardon et al., 1985; Colditz et al., 1995). In order to avoid the limitations of standard estrogen (ERT) or hormonal replacement therapy (HRT), we have studied the effect of DHEA administration to 60 to 70 year old women for 12 months on bone mineral density, parameters of bone formation and turnover, serum lipids, glucose and insulin, adipose tissue mass, muscular mass, energy, well-being as well as on vaginal and endometrial histology (Diamond et al., 1996; Labrie et al., 1997c). DHEA was administered percutaneously to avoid first passage of the steroid precursor through the liver.
We have thus evaluated the effect of chronic replacement therapy with a 10% DHEA cream applied once daily for 12 months in 60 to 70 year old women (N=15). […] These changes in bone mineral density were accompanied by significant decreases at 12 months of 38% and 22% in urinary hydroxyproline and in plasma bone alkaline phosphatase, respectively (all p<0.05).

[4] = estrone-supplemented, 50 μg daily, 161 days

**Q.** With `CC1=C(c2ccc(O)cc2)[C@H](c2ccc(OCCN3CCCCC3)cc2)Oc2cc(O)ccc21.Cl` [EM-652.HCl, (S)-(+)-7-hydroxy-3-(4′-hydroxyphenyl)-4-methyl-2-(4″-(2′″-piperidinoethoxy)phenyl)-2H-1-benzopyran hydrochloride] as the compound, how does the IC50 (human Ishikawa cells; Homo sapiens, Ishikawa, 120 h, read-out: Inhibition of 1 nM E2-induced stimulation of alkaline phosphatase IC50) read?
**A.** 1.52 ± 0.22 nM

**Q.** And the Emax (human Ishikawa cells; Homo sapiens, Ishikawa, 120 h, read-out: Maximal stimulation of alkaline phosphatase % of 1 nM E2 stimulation)?
**A.** 1.88 ± 0.26%

**Q.** What about the “Maximal inhibition of 1 nM E2-induced stimulation of alkaline phosphatase” value (human Ishikawa cells; Ishikawa cells, 5-day incubation, 1 nM E2) of the same compound?
**A.** 98.97 ± 0.174 (18)

**Q.** And the “increase of average tumor size over baseline (agonistic effect)” value ([1]; absence of estrone, 200 μg daily, 161 days)?
**A.** did not significantly change

**Q.** And the “tumor size lower than the initial value at start of treatment” value ([1]; estrone-stimulated, 50 μg oral daily, 23 weeks)?
**A.** 26%

**Q.** And the “complete response, % of tumors” value [1, 4]?
**A.** 17%

**Q.** What about the “partial response, % of tumors” value [1, 4] of the same compound?
**A.** 17%

**Q.** What about the “progressing tumors, % of tumors” value [1, 4] of the same compound?
**A.** 7%

**Q.** And the “stable response, % of tumors” value [1, 4]?
**A.** 60%

**Q.** And the “effect on growth of ZR-75-1 xenografts” value [2]?
**A.** did not exert any stimulatory effect; also recorded: no effect on tumor growth

**Q.** Which results are given for `C[C@]12CC[C@H](O)CC1=CC[C@@H]1[C@@H]2CC[C@]2(C)C(=O)CC[C@@H]12` [DHEA, dehydroepiandrosterone]?
**A.** decrease in fasting plasma insulin levels [3]: 17%; decrease in plasma bone alkaline phosphatase [3]: 22%; decrease in subcutaneous skin fold thickness [3]: 9.8%; decrease in urinary hydroxyproline [3]: 38%; decrease of fasting plasma glucose [3]: 12%; decrease of femoral fat (mid-thigh, computed tomography) [3]: 3.8%; effect on the endometrium [3]: remained completely atrophic; increase in femoral muscular area [3]: 3.5%; increase of bone mass density at the hip [3]: 2.3%; increase of bone mass density at the hip Ward's triangle [3]: 3.75%; increase of bone mass density at the lumbar spine level [3]: 2.2%; increase of the index of sebum secretion [3]: 79%; increase over control in plasma osteocalcin [3]: 135%; women with stimulated vaginal epithelium maturation among those with a maturation value of zero at onset [3]: 8 out of 10
